In one experiment the target is c-Cbl (Homo sapiens (Human), UniProt P22681). As to the kind of experiment: C-Cbl LCK Ub TR-FRET assay (c-cbl Lck HTRF). It counts as biochemical. As to conditions: for (fold-selectivity): C-cbl Lck HTRF IC50 relative to Cbl-b Lck HTRF IC50. The gist of the method: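 Detection reagents added, brief spin, 20 min RT. IC50 fit normalized to no-LCK (low) and DMSO (high) controls.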
In general terms: In TR-FRET formats the signal depends on donor and acceptor labels being close together.

A further experiment deals with Cbl-b (Homo sapiens (Human), UniProt Q13191). Put plainly: Cbl-b LCK Ub TR-FRET assay (Cbl-b Lck HTRF). It counts as biochemical. The procedure, abridged:
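TR-FRET (340 nm excitation, 615/665 nm emission) read after adding HA-ubiquitin–UBE2D2 thioester, anti-HA-D2 and streptavidin-Eu. Beforehand, compounds incubated 60 min with biotinylated Cbl-b, then 90 min with His-LCK and ATP (1 mM in 2× mix); IC50 from 10 concentrations, DMSO high and no-LCK low controls.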

Chain of Cbl-b (Q13191 40-426): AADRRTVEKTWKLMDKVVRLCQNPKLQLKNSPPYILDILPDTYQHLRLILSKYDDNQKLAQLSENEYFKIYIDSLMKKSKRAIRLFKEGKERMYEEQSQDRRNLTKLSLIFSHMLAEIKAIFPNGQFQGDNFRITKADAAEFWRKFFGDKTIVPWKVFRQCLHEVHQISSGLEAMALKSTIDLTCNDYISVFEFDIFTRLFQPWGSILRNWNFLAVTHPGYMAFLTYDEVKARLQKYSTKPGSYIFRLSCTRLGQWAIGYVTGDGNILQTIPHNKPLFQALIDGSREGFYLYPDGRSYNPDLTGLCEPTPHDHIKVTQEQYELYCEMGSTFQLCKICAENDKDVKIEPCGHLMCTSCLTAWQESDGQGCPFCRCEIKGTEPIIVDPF
Chain of c-Cbl (P22681 47-435): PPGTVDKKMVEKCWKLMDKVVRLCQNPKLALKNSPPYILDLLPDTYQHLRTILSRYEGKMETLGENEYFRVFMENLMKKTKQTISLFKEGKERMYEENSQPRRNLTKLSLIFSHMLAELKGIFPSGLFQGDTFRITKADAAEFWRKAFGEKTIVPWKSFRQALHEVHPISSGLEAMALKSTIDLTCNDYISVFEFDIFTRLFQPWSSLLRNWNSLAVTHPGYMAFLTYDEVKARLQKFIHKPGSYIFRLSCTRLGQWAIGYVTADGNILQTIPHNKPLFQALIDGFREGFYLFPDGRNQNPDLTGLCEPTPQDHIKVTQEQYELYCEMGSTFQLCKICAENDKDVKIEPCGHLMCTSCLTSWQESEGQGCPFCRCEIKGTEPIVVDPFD

The IC50 is the concentration that gives 50% inhibition. For `Cn1cnnc1C(F)(F)C1(c2cccc(N3Cc4c(cc(CN5CC(C)(O)C5)cc4C(F)(F)F)C3=O)c2)CC(F)(F)C1` [Compound 383, 2-(3-(1-(difluoro(4-methyl-4H-1,2,4-triazol-3-yl)methyl)-3,3-difluorocyclobutyl)phenyl)-6-((3-hydroxy-3-methylazetidin-1-yl)methyl)-4-(trifluoromethyl)isoindolin-1-one], the IC50 came to 380 nM at c-Cbl and 490 nM on Cbl-b. The “(fold-selectivity)” value on c-Cbl was “(0.77x)”.

For the molecule `C[C@H](N)c1cc2c(c(C(F)(F)F)c1)CN(c1cccc(C3(Cc4nncn4C)CC(F)(F)C3)c1)C2=O` [Compound 384, (S)-6-(1-aminoethyl)-2-(3-(3,3-difluoro-1-((4-methyl-4H-1,2,4-triazol-3-yl)methyl)cyclobutyl)phenyl)-4-(trifluoromethyl)isoindolin-1-one], on c-Cbl, the IC50 amounted to 25 nM and the “(fold-selectivity)” value is reported as “(1.1x)”. Besides, half-maximal inhibition against Cbl-b (IC50) was put at 22 nM.

`C[C@@H](N)c1cc2c(c(C(F)(F)F)c1)CN(c1cccc(C3(Cc4nncn4C)CC(F)(F)C3)c1)C2=O` [Compound 385, (R)-6-(1-aminoethyl)-2-(3-(3,3-difluoro-1-((4-methyl-4H-1,2,4-triazol-3-yl)methyl)cyclobutyl)phenyl)-4-(trifluoromethyl)isoindolin-1-one]: on c-Cbl, the 50% inhibitory concentration (IC50) was 22 nM and the “(fold-selectivity)” value is “(0.93x)”. This molecule also had an IC50 on Cbl-b of 24 nM.

Regarding `Cn1cnnc1[C@H](F)C1(c2cccc(N3Cc4c(cc(CN)cc4C(F)(F)F)C3=O)c2)CCC1` [Compound 386, (R)-6-(aminomethyl)-2-(3-(1-(fluoro(4-methyl-4H-1,2,4-triazol-3-yl)methyl)cyclobutyl)phenyl)-4-(trifluoromethyl)isoindolin-1-one], on c-Cbl, half-maximal inhibition (IC50) was put at 31 nM and the “(fold-selectivity)” value was “(0.98x)”. This molecule also registered an IC50 on Cbl-b of 32 nM.

As for `Cn1cnnc1[C@@H](F)C1(c2cccc(N3Cc4c(cc(CN)cc4C(F)(F)F)C3=O)c2)CCC1` [Compound 387, (S)-6-(aminomethyl)-2-(3-(1-(fluoro(4-methyl-4H-1,2,4-triazol-3-yl)methyl)cyclobutyl)phenyl)-4-(trifluoromethyl)isoindolin-1-one], on c-Cbl, the IC50 amounted to 53 nM and the “(fold-selectivity)” value is given as “(0.91x)”. The molecule also returned a half-inhibitory concentration (IC50) against Cbl-b of 58 nM.

With `CC(C)[C@H]1CN(C)CCN1C(C)c1cc2c(c(C(F)(F)F)c1)CN(c1cccc(C3([C@@H](F)c4nncn4C)CC(F)(F)C3)c1)C2=O` (stereo partly drawn) [Compound 388, 2-(3-(3,3-difluoro-1-((R)-fluoro(4-methyl-4H-1,2,4-triazol-3-yl)methyl)cyclobutyl)phenyl)-6-(1-((S)-2-isopropyl-4-methylpiperazin-1-yl)ethyl)-4-(trifluoromethyl)isoindolin-1-one], the figures for the IC50 against c-Cbl and on Cbl-b were 63 nM and 46 nM, respectively. Further, the “(fold-selectivity)” value at c-Cbl was “(1.4x)”.

Turning to `Cn1cnnc1[C@H](F)C1(c2cccc(N3Cc4c(cc([C@@H](N)CC5CC5)cc4C(F)(F)F)C3=O)c2)COC1` [Compound 389, 6-((S)-1-amino-2-cyclopropylethyl)-2-(3-(3-((R)-fluoro(4-methyl-4H-1,2,4-triazol-3-yl)methyl)oxetan-3-yl)phenyl)-4-(trifluoromethyl)isoindolin-1-one], at c-Cbl, the IC50 came to 14 nM and the “(fold-selectivity)” value was “(1.4x)”. In addition, the IC50 against Cbl-b stood at 9.6 nM.

As for `Cn1cnnc1[C@H](F)C1(c2cccc(N3Cc4c(cc([C@H](N)CC5CC5)cc4C(F)(F)F)C3=O)c2)COC1` [Compound 390, 6-((R)-1-amino-2-cyclopropylethyl)-2-(3-(3-((R)-fluoro(4-methyl-4H-1,2,4-triazol-3-yl)methyl)oxetan-3-yl)phenyl)-4-(trifluoromethyl)isoindolin-1-one], on c-Cbl, the IC50 turned out to be 11 nM and the “(fold-selectivity)” value was “(1.1x)”. Also, the IC50 at Cbl-b was found to be 96 nM.

As for `Cn1cnnc1[C@H](F)C1(c2cccc(N3Cc4c(cc([C@@H](N)C5CCC5)cc4C(F)(F)F)C3=O)c2)COC1` [Compound 391, 6-((S)-amino(cyclobutyl)methyl)-2-(3-(3-((R)-fluoro(4-methyl-4H-1,2,4-triazol-3-yl)methyl)oxetan-3-yl)phenyl)-4-(trifluoromethyl)isoindolin-1-one], the IC50 on c-Cbl was 63 nM; against Cbl-b, 33 nM. On c-Cbl, the “(fold-selectivity)” value is given as “(1.9x)”.

For `Cn1cnnc1[C@H](F)C1(c2cccc(N3Cc4c(cc([C@H](N)C5CCC5)cc4C(F)(F)F)C3=O)c2)COC1` [Compound 392, 6-((R)-amino(cyclobutyl)methyl)-2-(3-(3-((R)-fluoro(4-methyl-4H-1,2,4-triazol-3-yl)methyl)oxetan-3-yl)phenyl)-4-(trifluoromethyl)isoindolin-1-one], on c-Cbl, the IC50 stood at 15 nM and the “(fold-selectivity)” value is listed as “(1.1x)”. For the same molecule, the half-inhibitory concentration (IC50) at Cbl-b stood at 13 nM.

As to `Cn1cnnc1[C@H](F)C1(c2cccc(N3Cc4c(cc(CN)cc4C(F)(F)F)C3=O)c2)CC(F)(F)C1.O=CO` [Compound 393, (R)-6-(aminomethyl)-2-(3-(3,3-difluoro-1-(fluoro(4-methyl-4H-1,2,4-triazol-3-yl)methyl)cyclobutyl)phenyl)-4-(trifluoromethyl)isoindolin-1-one formate], the IC50 is 170 nM on c-Cbl and 130 nM against Cbl-b. Also, the “(fold-selectivity)” value on c-Cbl is “(1.3x)”.

For `Cn1cnnc1[C@@H](F)C1(c2cccc(N3Cc4c(cc(CN)cc4C(F)(F)F)C3=O)c2)CC(F)(F)C1.O=CO` [Compound 394, (S)-6-(aminomethyl)-2-(3-(3,3-difluoro-1-(fluoro(4-methyl-4H-1,2,4-triazol-3-yl)methyl)cyclobutyl)phenyl)-4-(trifluoromethyl)isoindolin-1-one formate], on c-Cbl, 160 nM corresponded to half-maximal inhibition (IC50) and the “(fold-selectivity)” value was “(1.3x)”. At Cbl-b, this molecule came in with an IC50 of 120 nM.

`Cn1cnnc1[C@H](F)C1(c2cccc(N3Cc4c(cc(CN5CCCC5)cc4C(F)(F)F)C3=O)c2)CC(F)(F)C1` [Compound 395, (R)-2-(3-(3,3-difluoro-1-(fluoro(4-methyl-4H-1,2,4-triazol-3-yl)methyl)cyclobutyl)phenyl)-6-(pyrrolidin-1-ylmethyl)-4-(trifluoromethyl)isoindolin-1-one]: at c-Cbl, the IC50 was 110 nM and the “(fold-selectivity)” value was “(1.0x)”. The IC50 against Cbl-b came to 110 nM.

As to `Cn1cnnc1[C@@H](F)C1(c2cccc(N3Cc4c(cc(CN5CCCC5)cc4C(F)(F)F)C3=O)c2)CC(F)(F)C1` [Compound 396, (S)-2-(3-(3,3-difluoro-1-(fluoro(4-methyl-4H-1,2,4-triazol-3-yl)methyl)cyclobutyl)phenyl)-6-(pyrrolidin-1-ylmethyl)-4-(trifluoromethyl)isoindolin-1-one], at c-Cbl, the midpoint of inhibition, the IC50, lay at 150 nM and the “(fold-selectivity)” value is “(1.3x)”. Also, at Cbl-b, the midpoint of inhibition, the IC50, lay at 120 nM.

As to `Cn1cnnc1[C@H](F)C1(c2cccc(N3Cc4c(cc(CN5CCC5)cc4C(F)(F)F)C3=O)c2)CC(F)(F)C1` [Compound 397, (R)-6-(azetidin-1-ylmethyl)-2-(3-(3,3-difluoro-1-(fluoro(4-methyl-4H-1,2,4-triazol-3-yl)methyl)cyclobutyl)phenyl)-4-(trifluoromethyl)isoindolin-1-one], on c-Cbl, half-maximal inhibition (IC50) was put at 150 nM and the “(fold-selectivity)” value is “(1.0x)”. At Cbl-b, this molecule gave an IC50 of 150 nM.

Regarding `Cn1cnnc1[C@@H](F)C1(c2cccc(N3Cc4c(cc(CN5CCC5)cc4C(F)(F)F)C3=O)c2)CC(F)(F)C1` [Compound 398, (S)-6-(azetidin-1-ylmethyl)-2-(3-(3,3-difluoro-1-(fluoro(4-methyl-4H-1,2,4-triazol-3-yl)methyl)cyclobutyl)phenyl)-4-(trifluoromethyl)isoindolin-1-one], the IC50 on c-Cbl amounted to 180 nM; on Cbl-b, 140 nM. Besides, the “(fold-selectivity)” value on c-Cbl is “(1.3x)”.

On to `Cn1cnnc1C(F)(F)C1(c2cccc(N3Cc4c(cc(CN)cc4C(F)(F)F)C3=O)c2)CC(F)(F)C1` [Compound 399, 6-(aminomethyl)-2-(3-(1-(difluoro(4-methyl-4H-1,2,4-triazol-3-yl)methyl)-3,3-difluorocyclobutyl)phenyl)-4-(trifluoromethyl)isoindolin-1-one], for which the IC50 on c-Cbl amounted to 430 nM; on Cbl-b it was 510 nM. Also, at c-Cbl, the “(fold-selectivity)” value is listed as “(0.84x)”.

Regarding `Cn1cnnc1CC1(c2cccc(N3Cc4c(cc(CN)cc4C(F)(F)F)C3=O)c2)CC(F)(F)C1` [Compound 400, 6-(aminomethyl)-2-(3-(3,3-difluoro-1-((4-methyl-4H-1,2,4-triazol-3-yl)methyl)cyclobutyl)phenyl)-4-(trifluoromethyl)isoindolin-1-one], at c-Cbl, the IC50 worked out at 51 nM and the “(fold-selectivity)” value is reported as “(1.3x)”. The same molecule registered an IC50 against Cbl-b of 39 nM.

As to `CC[C@H]1CN(C)CCN1Cc1cc2c(c(C(F)(F)F)c1)CN(c1cccc(C3(Cc4nncn4C)CC(F)(F)C3)c1)C2=O` [Compound 401, (S)-2-(3-(3,3-difluoro-1-((4-methyl-4H-1,2,4-triazol-3-yl)methyl)cyclobutyl)phenyl)-6-((2-ethyl-4-methylpiperazin-1-yl)methyl)-4-(trifluoromethyl)isoindolin-1-one], at c-Cbl, the IC50 turned out to be 27 nM and the “(fold-selectivity)” value is recorded as “(0.95x)”. For the same molecule, the IC50 on Cbl-b was 29 nM.

With `CN1CCN(Cc2cc3c(c(C(F)(F)F)c2)CN(c2cccc(C4(Cc5nncn5C)CC(F)(F)C4)c2)C3=O)[C@@H](C2CC2)C1` [Compound 402, (S)-6-((2-cyclopropyl-4-methylpiperazin-1-yl)methyl)-2-(3-(3,3-difluoro-1-((4-methyl-4H-1,2,4-triazol-3-yl)methyl)cyclobutyl)phenyl)-4-(trifluoromethyl)isoindolin-1-one], at c-Cbl, the IC50 was 46 nM and the “(fold-selectivity)” value is on record as “(1.2x)”. At Cbl-b, this molecule registered an IC50 of 39 nM.

(Values after patent US20250230147A1, “LACTAMS AS CBL-B INHIBITORS” (Genentech, Inc., priority 2021, published 2025).)
